Data from paper PMC10968976, “Targeting CDK9 in Cancer: An Integrated Approach of Combining In Silico Screening with Experimental Validation for Novel Degraders” (Current Issues in Molecular Biology, 2024).
Like-named read-outs stand apart in the source and are kept apart here.

Assays:
[1] = system: MIA-PaCa-2 cells; test: Cell viability (cell-titer-glo), MIA-PaCa-2; format: cell-based; settings: MIA-PaCa 2 cell line, 48 to 72 h, read-out: Estimated EC50
Procedure: (§1) The cell lines used in this study were purchased from ATCC (https://www.atcc.org, accessed on 18 December 2023) and maintained under standard conditions at 37 °C with a 5% CO2 atmosphere. NCI-H-358 cells were cultivated in 1X RPMI 1640 medium, while MIA-PaCa2 cells were cultured using 1X DMEM. Both culture media were supplemented with 10% fetal bovine serum and 1X Penicillin/Streptomycin (Gibco). For culturing the Melma-3M cells, IMDM media fortified with 20% fetal bovine serum and 1X Penicillin/Streptomycin was used. […]
(§2) Briefly, for cell viability experiments, after splitting, cells from each respective cell line were plated onto 96-well plates (MSP, Cat # CT-229185) at a density of about 1 × 10^4 cells/mL and 200 µL per well using the appropriate cell culture media after about 24 h at 37 °C, the cell media in each 96-well plate were replaced with media containing the various test compounds at varying concentrations. […] Each plate was gently mixed for ca. 10 min at room temperature and then transferred to a plate reader (Bio-Tek, Synergy HTX, Winooski, VT, USA, multimode reader) for chemiluminescence measurement as a proportional indicator of cell viability.
(§3) TB003 and TB008 have also been evaluated for cell growth inhibition and killing using two cell lines, NCI-H358, a non-small cell lung carcinoma-derived cell line, and MIA-PaCa-2, a pancreatic carcinoma-derived cell line. […]

[2] = system: NCI-H358 cells; test: Cell viability (cell-titer-glo), NCI-H358; format: cell-based; settings: Homo sapiens, NIH H-358 cell line, 48 to 72 h, read-out: Estimated EC50
Procedure: as §1, §2, §3

SMILES	EC50 [1]	EC50 [2]	EC50 ([1]; Homo sapiens)
O=C1[O][Pt]2([NH][C@@H]3CCCC[C@H]3[NH]2)[O]C1=O [Oxaliplatin, oxaliplatin]	100 µM	–	–
CC(=O)O[C@H]1C(=O)[C@@]2(C)[C@H]([C@H](OC(=O)c3ccccc3)[C@]3(O)C[C@H](OC(=O)[C@H](O)[C@@H](NC(=O)c4ccccc4)c4ccccc4)C(C)=C1C3(C)C)[C@]1(OC(C)=O)CO[C@@H]1C[C@@H]2O [Paclitaxel, paclitaxel]	–	75 µM	10 µM
